According to patent publication US20240246954A1, “COMPOSITIONS AND METHODS FOR INHIBITING KRAS” (TheRas, Inc., priority 2021, published 2024):

What was measured:
[1] = biological target: T1, Avi-KRAS G12D (1-169) GppNHp/RAF1 RBD-3×FLAG (52-151) (Homo sapiens, UniProt P01116, G12D); experiment: HTRF Raf1-KRAS G12D-GppNHp disruption assay; type: biochemical; settings: 1 h incubation
T1 construct: Avi-KRAS G12D (1-169) GppNHp
In short: (§1)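 Compounds titrated from 100 μM in a 10-point series, incubated with protein mix 1 h at room temperature, then HTRF reagents a further 1 h. Time-resolved fluorescence read (excitation 320 nm, emission 615 nm); activity expressed as percentage of DMSO control.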

[2] = biological target: T2, Avi-KRAS G12D/Q25A (1-169) GppNHp/3×FLAG-PI3KCA (157-299) (Homo sapiens, UniProt P01116, G12D/Q25A); experiment: HTRF PI3KCA-KRAS G12D/Q25A-GppNHp disruption assay; type: biochemical; settings: 1 h incubation
T2 construct: Avi-KRAS G12D/Q25A (1-169) GppNHp
In short: as §1

T1 sequence (P01116 1-169 isoform P01116-2 G12D limits assumed): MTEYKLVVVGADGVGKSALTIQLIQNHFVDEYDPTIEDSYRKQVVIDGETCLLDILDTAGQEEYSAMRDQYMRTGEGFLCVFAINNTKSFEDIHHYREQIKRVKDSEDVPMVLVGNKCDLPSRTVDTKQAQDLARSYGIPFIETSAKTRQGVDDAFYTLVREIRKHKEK
T2 sequence (P01116 1-169 isoform P01116-2 G12D/Q25A limits assumed): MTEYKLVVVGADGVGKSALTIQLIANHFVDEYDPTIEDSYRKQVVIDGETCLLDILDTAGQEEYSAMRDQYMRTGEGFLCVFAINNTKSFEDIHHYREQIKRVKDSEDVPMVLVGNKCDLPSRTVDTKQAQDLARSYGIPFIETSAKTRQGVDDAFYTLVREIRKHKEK

Compound	IC50 [1]	IC50 [2]
C[C@@H]1CN(c2nc(OC[C@@]34CCCN3C[C@@H](F)C4)nc3c(F)c(-c4ccc(F)c5sc(N)nc45)c(C(F)(F)F)cc23)CCN1 [Compound 225]	1 to 10 µM	10 to 30 µM
Nc1nc2c(-c3c(C(F)F)cc4c(N5CCNCC5)nc(OCC56CCCN5CCC6)nc4c3F)ccc(F)c2s1 [Compound 227]	1 to 10 µM	1 to 10 µM
Nc1nc2c(-c3c(OC(F)(F)F)cc4c(N5CCNCC5)nc(OCC56CCCN5CCC6)nc4c3F)ccc(F)c2s1 [Compound 228, 7-fluoro-4-(8-fluoro-4-(piperazin-1-yl)-2-((tetrahydro-1H-pyrrolizin-7a(5H)-yl)methoxy)-6-(trifluoromethoxy)quinazolin-7-yl)benzo[d]thiazol-2-amine]	1 to 10 µM	1 to 10 µM
C[C@@H]1CN(c2nc(OC[C@@]34CCCN3C[C@@H](F)C4)nc3c(F)c(-c4ccc(F)c5sc(N)nc45)c(C(F)(F)F)cc23)C[C@H](C)N1 [Compound 229]	10 to 30 µM	10 to 30 µM
CN(c1nc(OCC23CCCN2CCC3)nc2c(F)c(-c3ccc(F)c4sc(N)nc34)c(C(F)(F)F)cc12)[C@@H]1CCN(C(=O)C2CN2)C1 (some centres unmarked) [Compound 230]	1 to 10 µM	1 to 10 µM
Nc1nc2c(-c3c(OC(F)(F)F)cc4c(N5CC6CCC(C5)N6)nc(OCC56CCCN5CCC6)nc4c3F)ccc(F)c2s1 [Compound 231]	1 to 10 µM	1 to 10 µM
Nc1nc2c(-c3c(OC(F)(F)F)cc4c(N5CC6CCC(C5)N6)nc(OC[C@@]56CCCN5C[C@H](F)C6)nc4c3F)ccc(F)c2o1 [Compound 233]	1 to 10 µM	1 to 10 µM
Nc1nc2c(-c3c(OC(F)F)cc4c(N5CCNCC5)nc(OCC56CCCN5CCC6)nc4c3F)ccc(F)c2s1 [Compound 234, 4-(6-(difluoromethoxy)-8-fluoro-4-(piperazin-1-yl)-2-((tetrahydro-1H-pyrrolizin-7a(5H)-yl)methoxy)quinazolin-7-yl)-7-fluorobenzo[d]thiazol-2-amine]	1 to 10 µM	1 to 10 µM
Nc1nc2c(-c3c(C(F)(F)F)cc4c(NC5CN(C(=O)C6CN6)C5)nc(OCC56CCCN5CCC6)nc4c3F)ccc(F)c2s1 (centres unmarked) [Compound 235]	1 to 10 µM	10 to 30 µM
Nc1nc2c(-c3c(-c4ccoc4)cc4c(N5CC6CCC(C5)N6)nc(OC[C@@]56CCCN5C[C@H](F)C6)nc4c3F)ccc(F)c2s1 [Compound 237]	0.1 to 1 µM	1 to 10 µM
Nc1nc2c(-c3c(C(F)(F)F)cc4c(N5CC6CC5CN6)nc(OC[C@@]56CCCN5C[C@H](F)C6)nc4c3F)ccc(F)c2s1 (some centres unmarked) [Compound 239]	1 to 10 µM	1 to 10 µM
Nc1nc2c(-c3c(OC(F)(F)F)cc4c(N5CC6CC5CN6)nc(OC[C@@]56CCCN5C[C@H](F)C6)nc4c3F)ccc(F)c2s1 (some centres unmarked) [Compound 240]	1 to 10 µM	1 to 10 µM
Nc1nc2c(-c3c(Cl)cc4c(N5CCCNCC5)ncnc4c3F)ccc(F)c2s1 [Compound 242]	10 to 30 µM	10 to 30 µM
Nc1nc2c(-c3c(Cl)cc4c(N5CC6CNC(C6)C5)ncnc4c3F)ccc(F)c2s1 (centres unmarked) [Compound 243]	10 to 30 µM	10 to 30 µM
CN1CC(C)(C)C[C@H]1COc1nc(N2CC3CCC(C2)N3)c2cc(C(F)(F)F)c(-c3ccc(F)c4sc(N)nc34)c(F)c2n1 [Compound 253]	1 to 10 µM	1 to 10 µM
Nc1nc2c(-c3c(C(F)(F)F)cc4c(NC5CC6CC[C@@H](C5)N6)nc(OCC56CCCN5CCC6)nc4c3F)ccc(F)c2s1 (some centres unmarked) [Compound 263]	1 to 10 µM	1 to 10 µM

Compound	IC50 [1]	IC50 [2]
Nc1nc2c(-c3c(C(F)(F)F)cc4c(NC5CC6CC[C@H]5N6)nc(OCC56CCCN5CCC6)nc4c3F)ccc(F)c2s1 (some centres unmarked) [Compound 265]	0.1 to 1 µM	1 to 10 µM
Nc1nc2c(-c3c(C(F)(F)F)cc4c(NC5CC6CC[C@H]5N6)nc(OCC56CCCN5CCC6)nc4c3F)ccc(F)c2s1 (some centres unmarked) [Compound 266]	0.1 to 1 µM	1 to 10 µM
CN(c1nc(OCC23CCCN2CCC3)nc2c(F)c(-c3ccc(F)c4sc(N)nc34)c(C(F)(F)F)cc12)C1CC2CC[C@@H](C1)N2 (some centres unmarked) [Compound 268]	1 to 10 µM	1 to 10 µM
NCC(=O)N1C2CCC1CN(c1nc(OC[C@@]34CCCN3C[C@H](F)C4)nc3c(F)c(-c4ccc(F)c5sc(N)nc45)c(C(F)(F)F)cc13)C2 [Compound 272]	0.1 to 1 µM	1 to 10 µM
NC(=O)N1C2CCC1CN(c1nc(OC[C@@]34CCCN3C[C@H](F)C4)nc3c(F)c(-c4ccc(F)c5sc(N)nc45)c(C(F)(F)F)cc13)C2 [Compound 273]	1 to 10 µM	1 to 10 µM
CN(c1nc(OCC23CCCN2CCC3)nc2c(F)c(-c3ccc(F)c4sc(N)nc34)c(C(F)(F)F)cc12)C1CCNCC1 [Compound 280]	1 to 10 µM	1 to 10 µM
COc1cc2c(N3C[C@@H](C)NC[C@@H]3C)nc(OC[C@@]34CCCN3C[C@H](F)C4)nc2c(F)c1-c1ccc(F)c2sc(N)nc12 [Compound 281, 4-(4-((2S,5R)-2,5-dimethylpiperazin-1-yl)-8-fluoro-2-(((2R,7aS)-2-fluorotetrahydro-1H-pyrrolizin-7a(5H)-yl)methoxy)-6-methoxyquinazolin-7-yl)-7-fluorobenzo[d]thiazol-2-amine]	10 to 30 µM	10 to 30 µM
C[C@@H]1CN(c2nc(OC[C@@]34CCCN3C[C@H](F)C4)nc3c(F)c(-c4ccc(F)c5sc(N)nc45)c(OC(F)F)cc23)[C@@H](C)CN1 [Compound 282, 4-(6-(difluoromethoxy)-4-((2S,5R)-2,5-dimethylpiperazin-1-yl)-8-fluoro-2-(((2R,7aS)-2-fluorotetrahydro-1H-pyrrolizin-7a(5H)-yl)methoxy)quinazolin-7-yl)-7-fluorobenzo[d]thiazol-2-amine]	1 to 10 µM	1 to 10 µM
CO[C@@H]1C[C@@H](COc2nc(N3CC4CCC(C3)N4)c3cc(C(F)(F)F)c(-c4ccc(F)c5sc(N)nc45)c(F)c3n2)N(C)C1 [Compound 284]	0.1 to 1 µM	0.1 to 1 µM
Nc1nc2c(-c3c(C(F)(F)F)cc4c(NC5C[C@H]6CCC5N6)nc(OCC56CCCN5CCC6)nc4c3F)ccc(F)c2s1 (some centres unmarked) [Compound 286]	0.1 to 1 µM	0.1 to 1 µM
CN(c1nc(OC[C@@]23CCCN2C[C@H](F)C3)nc2c(F)c(-c3ccc(F)c4sc(N)nc34)c(C(F)(F)F)cc12)C1C2C[C@H]1CN2 (some centres unmarked) [Compound 288]	0.1 to 1 µM	1 to 10 µM
C[C@@H]1CNC[C@@H]1N(C)c1nc(OC[C@@]23CCCN2C[C@H](F)C3)nc2c(F)c(-c3ccc(F)c4sc(N)nc34)c(C(F)(F)F)cc12 [Compound 292]	1 to 10 µM	1 to 10 µM
CC(F)(F)c1cc2c(N3CCNCC3)nc(OCC34CCCN3CCC4)nc2c(F)c1-c1ccc(F)c2sc(N)nc12 [Compound 295, 4-(6-(1,1-difluoroethyl)-8-fluoro-4-(piperazin-1-yl)-2-((tetrahydro-1H-pyrrolizin-7a(5H)-yl)methoxy)quinazolin-7-yl)-7-fluorobenzo[d]thiazol-2-amine]	1 to 10 µM	1 to 10 µM
C[C@@H]1CN(c2nc(OC[C@@]34CCCN3C[C@H](F)C4)nc3c(F)c(-c4ccc(F)c5sc(N)nc45)c(C(F)F)cc23)[C@@H](C)CN1 [Compound 302]	1 to 10 µM	1 to 10 µM
Nc1nc2c(-c3c(C(F)(F)F)cc4c(N5CCC6(CNC6)C5)nc(OCC56CCCN5CCC6)nc4c3F)ccc(F)c2s1 [Compound 307]	0.1 to 1 µM	1 to 10 µM
